Tested on: skin
Test: Affymetrix microarray of skin, DBP-4 hr and analogs vs. untreated; gene selection by log-2 fold change, Wilcoxon, Kendall tau (Tables 8, 9)
Assay type: in vivo, mouse

Which results are given for CCCCOC(=O)c1ccccc1C(=O)OCCCC [DBP, dibutylphthalate]?
Wilcoxon: Pigp (gene Pigp, NM_019543_at, DBP-4 hr vs. untreated): No; Kendall: Pigp (gene Pigp, NM_019543_at, gene expression vs. output): Yes; Wilcoxon: Pkp4 (gene Pkp4, NM_026361_at, DBP-4 hr vs. untreated): No; Kendall: Pkp4 (gene Pkp4, NM_026361_at, gene expression vs. output): Yes; Wilcoxon: Plk3 (gene Plk3, NM_013807_at, DBP-4 hr vs. untreated): No; Kendall: Plk3 (gene Plk3, NM_013807_at, gene expression vs. output): Yes; Wilcoxon: Polr2g (gene Polr2g, NM_026329_at, DBP-4 hr vs. untreated): No; Kendall: Polr2g (gene Polr2g, NM_026329_at, gene expression vs. output): Yes; Wilcoxon: Pparg (gene Pparg, NM_011146_at, DBP-4 hr vs. untreated): No; Kendall: Pparg (gene Pparg, NM_011146_at, gene expression vs. output): Yes; Wilcoxon: Ppp1r7 (gene Ppp1r7, NM_023200_at, DBP-4 hr vs. untreated): No; Kendall: Ppp1r7 (gene Ppp1r7, NM_023200_at, gene expression vs. output): Yes; Wilcoxon: Prokr1 (gene Prokr1, NM_021381_at, DBP-4 hr vs. untreated): No; Kendall: Prokr1 (gene Prokr1, NM_021381_at, gene expression vs. output): Yes; Wilcoxon: Ptpn1 (gene Ptpn1, NM_011201_at, DBP-4 hr vs. untreated): No; Kendall: Ptpn1 (gene Ptpn1, NM_011201_at, gene expression vs. output): Yes; Wilcoxon: Rabgef1 (gene Rabgef1, NM_019983_at, DBP-4 hr vs. untreated): No; Kendall: Rabgef1 (gene Rabgef1, NM_019983_at, gene expression vs. output): Yes; Wilcoxon: Rai12 (gene Rai12, NM_018740_at, DBP-4 hr vs. untreated): No; Kendall: Rai12 (gene Rai12, NM_018740_at, gene expression vs. output): Yes; Wilcoxon: Rbbp6 (gene Rbbp6, NM_011247_at, DBP-4 hr vs. untreated): No; Kendall: Rbbp6 (gene Rbbp6, NM_011247_at, gene expression vs. output): Yes; Wilcoxon: Rpl7l1 (gene Rpl7l1, NM_025433_at, DBP-4 hr vs. untreated): No; Kendall: Rpl7l1 (gene Rpl7l1, NM_025433_at, gene expression vs. output): Yes; Wilcoxon: Sema4d (gene Sema4d, NM_013660_at, DBP-4 hr vs. untreated): No; Kendall: Sema4d (gene Sema4d, NM_013660_at, gene expression vs. output): Yes; Wilcoxon: Siae (gene Siae, NM_011734_at, DBP-4 hr vs. untreated): No; Kendall: Siae (gene Siae, NM_011734_at, gene expression vs. output): Yes; Wilcoxon: Sirt1 (gene Sirt1, NM_019812_at, DBP-4 hr vs. untreated): No; Kendall: Sirt1 (gene Sirt1, NM_019812_at, gene expression vs. output): Yes; Wilcoxon: Slc9a3r1 (gene Slc9a3r1, NM_012030_at, DBP-4 hr vs. untreated): No; Kendall: Slc9a3r1 (gene Slc9a3r1, NM_012030_at, gene expression vs. output): Yes; Wilcoxon: Slc30a4 (gene Slc30a4, NM_011774_at, DBP-4 hr vs. untreated): No; Kendall: Slc30a4 (gene Slc30a4, NM_011774_at, gene expression vs. output): Yes; Wilcoxon: Slc35a1 (gene Slc35a1, NM_011895_at, DBP-4 hr vs. untreated): No; Kendall: Slc35a1 (gene Slc35a1, NM_011895_at, gene expression vs. output): Yes; Wilcoxon: Smarcb1 (gene Smarcb1, NM_011418_at, DBP-4 hr vs. untreated): No; Kendall: Smarcb1 (gene Smarcb1, NM_011418_at, gene expression vs. output): Yes; Wilcoxon: Srsf6 (gene Srsf6, NM_026499_at, DBP-4 hr vs. untreated): No; Kendall: Srsf6 (gene Srsf6, NM_026499_at, gene expression vs. output): Yes; Wilcoxon: Stx17 (gene Stx17, NM_026343_at, DBP-4 hr vs. untreated): No; Kendall: Stx17 (gene Stx17, NM_026343_at, gene expression vs. output): Yes; Wilcoxon: Tmed1 (gene Tmed1, NM_010744_at, DBP-4 hr vs. untreated): No; Kendall: Tmed1 (gene Tmed1, NM_010744_at, gene expression vs. output): Yes; Wilcoxon: Tmem208 (gene Tmem208, NM_025486_at, DBP-4 hr vs. untreated): No; Kendall: Tmem208 (gene Tmem208, NM_025486_at, gene expression vs. output): Yes; Wilcoxon: Tnfrsf1a (gene Tnfrsf1a, NM_011609_at, DBP-4 hr vs. untreated): No; Kendall: Tnfrsf1a (gene Tnfrsf1a, NM_011609_at, gene expression vs. output): Yes; Wilcoxon: Tnfrsf9 (gene Tnfrsf9, NM_011612_at, DBP-4 hr vs. untreated): No; Kendall: Tnfrsf9 (gene Tnfrsf9, NM_011612_at, gene expression vs. output): Yes; Wilcoxon: Trappc2l (gene Trappc2l, NM_021502_at, DBP-4 hr vs. untreated): No; Kendall: Trappc2l (gene Trappc2l, NM_021502_at, gene expression vs. output): Yes; Wilcoxon: Tril (gene Tril, NM_025817_at, DBP-4 hr vs. untreated): No; Kendall: Tril (gene Tril, NM_025817_at, gene expression vs. output): Yes; Wilcoxon: Trim12a (gene Trim12a, NM_023835_at, DBP-4 hr vs. untreated): No; Kendall: Trim12a (gene Trim12a, NM_023835_at, gene expression vs. output): Yes; Wilcoxon: Trip4 (gene Trip4, NM_019797_at, DBP-4 hr vs. untreated): No; Kendall: Trip4 (gene Trip4, NM_019797_at, gene expression vs. output): Yes; Wilcoxon: Trp63 (gene Trp63, NM_011641_at, DBP-4 hr vs. untreated): No; Kendall: Trp63 (gene Trp63, NM_011641_at, gene expression vs. output): Yes; Wilcoxon: Trpv2 (gene Trpv2, NM_011706_at, DBP-4 hr vs. untreated): No; Kendall: Trpv2 (gene Trpv2, NM_011706_at, gene expression vs. output): Yes; Wilcoxon: Tsn (gene Tsn, NM_011650_at, DBP-4 hr vs. untreated): No; Kendall: Tsn (gene Tsn, NM_011650_at, gene expression vs. output): Yes; Wilcoxon: Ufc1 (gene Ufc1, NM_025388_at, DBP-4 hr vs. untreated): No; Kendall: Ufc1 (gene Ufc1, NM_025388_at, gene expression vs. output): Yes; Wilcoxon: Ulk2 (gene Ulk2, NM_013881_at, DBP-4 hr vs. untreated): No; Kendall: Ulk2 (gene Ulk2, NM_013881_at, gene expression vs. output): Yes; Wilcoxon: Wbp1 (gene Wbp1, NM_016757_at, DBP-4 hr vs. untreated): No; Kendall: Wbp1 (gene Wbp1, NM_016757_at, gene expression vs. output): Yes; Wilcoxon: Zfp68 (gene Zfp68, NM_013844_at, DBP-4 hr vs. untreated): No; Kendall: Zfp68 (gene Zfp68, NM_013844_at, gene expression vs. output): Yes; Wilcoxon: Zfp90 (gene Zfp90, NM_011764_at, DBP-4 hr vs. untreated): No; Kendall: Zfp90 (gene Zfp90, NM_011764_at, gene expression vs. output): Yes; Wilcoxon: Zkscan3 (gene Zkscan3, NM_023685_at, DBP-4 hr vs. untreated): No; Kendall: Zkscan3 (gene Zkscan3, NM_023685_at, gene expression vs. output): Yes; Wilcoxon: Zkscan6 (gene Zkscan6, NM_026107_at, DBP-4 hr vs. untreated): No; Kendall: Zkscan6 (gene Zkscan6, NM_026107_at, gene expression vs. output): Yes; 1110032A04Rik NM_133675_at ≧2-Fold change (mouse, in vivo): No; 1600029D21Rik (NM_029639_at) ≧2-Fold change (mouse, in vivo): Yes; 2010002N04Rik (NM_134133_at) ≧2-Fold change (mouse, in vivo): Yes; 2310016C08Rik (NM_023516_at) ≧2-Fold change (mouse, in vivo): Yes; 2510002D24Rik NM_001033164_at ≧2-Fold change (mouse, in vivo): No; 2510009E07Rik NM_001001881_at ≧2-Fold change (mouse, in vivo): No; 2610528A11Rik XR_105647_at ≧2-Fold change (mouse, in vivo): No; 1500015010Rik NM_024283_at ≧2-Fold change (mouse, in vivo): No; 1810011010Rik (NM_026931_at) ≧2-Fold change (mouse, in vivo): Yes; 3110079015Rik NM_028473_at ≧2-Fold change (mouse, in vivo): No; A2m NM_175628_at ≧2-Fold change (mouse, in vivo): No
